Assays:
[1] = Pharmacokinetic test of mice (intravenous administration); assay type: in vivo; details: mouse, plasma; CD1 mice, intravenous 1 mg/kg
Procedure: This experiment was intended to evaluate a pharmacokinetic behavior of a compound after intravenous injection or intragastric administration in the mice. Intravenous injection administration: a test compound was prepared into 0.2 mg/mL clear solution, a solvent was 10% ethanol/40% polyethylene glycol 400/50% ultrapure water, and after administration, plasma was collected 0.083 hour, 0.25 hour, 0.5 hour, 1 hour, 2 hours, 4 hours, 8 hours, 24 hours and 48 hours later.
(§1) A concentration of the test compound in the plasma was determined by high-performance liquid chromatography-tandem mass spectrometry (LC-MS/MS). Retention time, chromatogram collection and chromatogram integration of compounds and internal standards were treated by software Analyst (Applied Biosystems), and data statistics was treated by software Analyst (Applied Biosystems).
(§2) A plasma concentration was treated by a non-atrioventricular model of Winnonlin™ Version 6.1 (Pharsight, Mountain View, CA) pharmacokinetic software, and pharmacokinetic parameters were calculated by a linear logarithmic trapezoid method.

[2] = mouse, in vivo
Text: In particular, a maximum tolerated dose of the compound 36 after repeated administration for 14 days is more than 2.7 times that of the compound 62, especially a safety window of the dose is more than 230 times that of the equivalent dose, so that the compound has high safety.

CYP3A4 = CYP3A4 (Homo sapiens, UniProt P08684); assay: biochemical; assay type: in vitro ADME
CYP3A4, sequence (P08684 2-503 limits assumed): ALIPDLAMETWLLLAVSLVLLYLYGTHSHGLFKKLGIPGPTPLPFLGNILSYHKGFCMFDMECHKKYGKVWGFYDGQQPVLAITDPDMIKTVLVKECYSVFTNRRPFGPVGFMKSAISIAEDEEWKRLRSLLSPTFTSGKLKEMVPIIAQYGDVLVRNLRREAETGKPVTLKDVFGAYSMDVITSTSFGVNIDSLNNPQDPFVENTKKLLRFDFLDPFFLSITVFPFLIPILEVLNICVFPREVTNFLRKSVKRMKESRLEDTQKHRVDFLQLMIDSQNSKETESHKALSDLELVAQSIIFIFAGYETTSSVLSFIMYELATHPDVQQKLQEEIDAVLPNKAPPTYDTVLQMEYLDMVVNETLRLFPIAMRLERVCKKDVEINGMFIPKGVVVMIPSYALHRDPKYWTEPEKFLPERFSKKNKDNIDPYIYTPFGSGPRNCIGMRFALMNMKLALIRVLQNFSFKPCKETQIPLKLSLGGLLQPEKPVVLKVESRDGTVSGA

[3] = Pharmacokinetic test of rats (intravenous and intragastric administration); assay type: in vivo; details: SD rats; for AUC(0-t) / Cmax / clearance / half-life: rat, plasma
Procedure: This experiment was intended to evaluate a pharmacokinetic behavior of an implementing compound after intravenous injection or intragastric administration in the rats. Intravenous injection administration: a test compound was prepared into 0.2 mg/mL clear solution, a solvent was 10% ethanol, 40% polyethylene glycol 400 and 50% water, and after administration, plasma was collected 0.083 hour, 0.25 hour, 0.5 hour, 1 hour, 2 hours, 4 hours, 8 hours and 24 hours later. Intragastric administration: a test compound was prepared into 1 mg/mL clear solution, a solvent was 10% ethanol/40% polyethylene glycol 400/50% water, and after administration, plasma was collected 0.25 hour, 0.5 hour, 1 hour, 2 hours, 4 hours, 8 hours and 24 hours later.
as §1, §2
Pharmacokinetic parameters of the compounds in the rats with an intravenous injection dose of 1 mg/kg and an intragastric and oral dose of 5 mg/kg were as shown in Table 20 below.

[4] = target: T1, mineralocorticoid receptor (MR) (Homo sapiens, UniProt P08235); assay: MR Gal4-LBD luciferase reporter gene assay in HEK293T cells (antagonism of 0.8 nM aldosterone); assay type: cell-based
T1 construct: expressed in transfected cells
T1 sequence (P08235 726-964 limits assumed): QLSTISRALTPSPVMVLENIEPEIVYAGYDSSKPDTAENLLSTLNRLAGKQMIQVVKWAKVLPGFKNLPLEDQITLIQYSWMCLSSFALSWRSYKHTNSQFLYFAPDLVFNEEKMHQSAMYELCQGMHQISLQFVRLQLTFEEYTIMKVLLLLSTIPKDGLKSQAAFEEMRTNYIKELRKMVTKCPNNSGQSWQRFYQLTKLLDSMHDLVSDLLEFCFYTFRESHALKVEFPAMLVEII
Text: By the characteristic of chemiluminescence reaction produced by combination of luciferase and substrate, a Gal4 DNA binding domain (DBD) fused plasmid containing a mineralocorticoid receptor (MR) ligand binding domain (LBD) and a firefly luciferase reporter gene plasmid under the control of Gal4 UAS (upstream activation sequence) were transfected into human embryonic kidney cells (HEK293). Changes of […] were judged by a level of firefly luciferase activity.
All compounds were dissolved in DMSO to prepare a 25 mM stock solution, and stored in a refrigerator at −20° C.
• 1) A compound to be tested was subjected to 3-times gradient dilution with the DMSO, with 10 concentration gradients and an initial concentration of 10 mM. • 2) A positive compound (Finerenone) was subjected to 3-times gradient dilution with the DMSO, with 10 concentration gradients and an initial concentration of 1 mM. • 3) 1000× positive control (1 mM, Finerenone) and 1000× negative control (100% DMSO) were prepared. • 4) A compound plate was sealed and shaken for 5 minutes.
• 5) All cells were cultured by ATCC standard operation, and HEK293T was experimented in an exponential growth phase. • 6) A culture medium supernatant was gently discarded. The cells were washed with PBS twice.
(3) The cells were digested with pancreatin digestive juice, the digestion was stopped with a complete culture solution, and then the cells were collected and counted.
(4) 6×10^6 HEK293T cells were inoculated into a 100 mm cell culture dish.
(5) The culture dish inoculated with the cells was cultured in a 5% CO2 incubator at 37° C. for 16 hours overnight.
• 1) Lipofectamine® 3000&P3000 transfection reagents were placed at room temperature. • 2) The Lipofectamine® 3000 reagent was added into an Opti-MEM™ culture medium, and meanwhile, the P3000, the plasmid and the Opti-MEM™ culture medium were added into another tube, taking care not to touch the tube wall. • 3) The mixture was mixed evenly by a pipette, and allowed to stand at room temperature for 5 minutes. • 4) The plasmid was added into the diluted transfection reagent, mixed evenly by a pipette, and allowed to stand at room temperature for 20 minutes. • 5) The transfection reagent mixed with the plasmid was added into a […] cell culture dish. • 6) The culture dish was cultured in a 5% CO2 incubator at 37° C. for 5 hours to 6 hours.
• 1) 25 nL of diluted compound was transferred to a cell culture plate with Echo655. • 2) The cells (referring to step 1.3) were inoculated into a 384 cell culture plate, with 17,000 cells, 25 μL of phenol red-free DMEM culture medium containing 5% CFBS and 0.8 nM Aldosteron per well.
(3) The cell culture plate was cultured in a 5% CO2 incubator at 37° C. for 18 hours to 20 hours overnight.
• 1) A Britelite plus detection reagent was placed at room temperature. 2) The 384 cell plate was placed at room temperature. • 3) 25 μL of Britelite plus detection reagent was added into each well of the cell culture plate. • 4) A luminescence was detected with Envision.
• 1) a firefly luciferase signal was obtained by reading the Luminescence to calculate an inhibition rate; • 2) % inhibition rate=100−[(RLU compound−avgRLU positive control)/(RLU negative control−avgRLU positive control)×100%, wherein the avgRLU positive control was an average value of Luminescences of all positive control wells in the whole plate; the avgRLU negative control was an average value of Luminescences of all negative control wells in the whole plate; and the RLU compound was Luminescence values of compounds to be tested with different concentrations; and • 3) IC50 of the compound was calculated by Graphpad8.0 Drawing software.

[5] = CYP3A4-5M IC50, human CYP3A4, CYP3A4-5M
[6] = CYP3A4-5T IC50, human CYP3A4, CYP3A4-5T
[7] = intragastric and oral administration 5 mg/kg

## CCOc1ncc(C)c2c1[C@H](c1ccc(C#N)c3c1OCO3)C(C(N)=O)=C(C)N2 [Example 62, (S)-4-(7-cyanobenzo[d][1,3]dioxol-4-yl)-5-ethoxy-2,8-dimethyl-1,4-dihydro-1,6-naphthyridine-3-formamide]
[1]
  AUC(0-t): 201 µg·h/mL
[2]
  maximum tolerated dose after repeated administration for 14 days (safety in words): highly safe
CYP3A4; [5]
  IC50: 13.7 µM
CYP3A4; [6]
  IC50: 5.35 µM
[3]; [7]
  F: 78.09%
  AUC(0-t): 361 µg·h/mL
  Cmax: 24000 ng/mL
[3]; intravenous 1 mg/kg
  AUC(0-t): 106 µg·h/mL
  clearance: 0.13 mL/min/kg
  half-life: 604 min
[4]
  IC50: 14.8 nM

## CCOc1ncc(C)c2c1[C@H](c1ccc(C#N)c3c1OCC3)C(C(N)=O)=C(C)N2 [Example 36, (S)-4-(4-cyano-2,3-dihydrobenzofuran-7-yl)-5-ethoxy-2,8-dimethyl-1,4-dihydro-1,6-naphthyridine-3-formamide]
[1]
  AUC(0-t): 206 µg·h/mL
[2]
  maximum tolerated dose after repeated administration for 14 days, relative to compound 62: more than 2.7 times that of the compound 62
[2]; 14 days
  safety window of the dose relative to the equivalent dose: more than 230 times that of the equivalent dose
CYP3A4
  inhibitory effect on CYP3A4: small inhibitory effect
CYP3A4; [5]
  IC50: 22.9 µM
CYP3A4; [6]
  IC50: 15.8 µM
[3]; [7]
  F: 73.74%
  AUC(0-t): 365 µg·h/mL
  Cmax: 37000 ng/mL
[3]; intravenous 1 mg/kg
  AUC(0-t): 94.1 µg·h/mL
  clearance: 0.14 mL/min/kg
  half-life: 725 min
[4]
  IC50: 11.5 nM

Source: patent US20260250278A1, “PHENYL-SUBSTITUTED DIHYDRONAPHTHYRIDINE COMPOUNDS, AND PREPARATION AND USE THEREOF” (SUZHONG PHARMACEUTICAL GROUP CO., LTD., priority 2022, published 2026)
